How the values were obtained:
gastric acid secretion = experiment: Gastric Antisecretory Activity in the Gastric Fistula Rat; type: in vivo, Male Long Evans rats; conditions: sc; for Potency Ratio (cimetidine = 1.0): gastric fistula rat, relative to cimetidine
peptic ulcer disease = conditions: clinical evaluation, Gray et al., Lancet, 1, 8001 (1977); cited from earlier work

Row | SMILES | Potency Ratio (cimetidine = 1.0) (gastric acid secretion) | ED50 (gastric acid secretion; Rattus norvegicus, read-out: ED50 sc) [µmol/kg] | effectiveness in the treatment of peptic ulcer disease (peptic ulcer disease)
1 | Nc1nsnc1NCCCOc1cccc(CN2CCCCC2)c1 [Example 1, 3-Amino-4-[3-(3-piperidinomethylphenoxy)propylamino]-1,2,5-thiadiazole] | 37 |  | 
2 | CN(C)Cc1ccc(CSCCNc2nsnc2N)o1 [Example 2, 3-Amino-4-{2-[(5-dimethylaminomethyl-2-furyl)methylthio]ethylamino}-1,2,5-thiadiazole] | 4.5 |  | 
3 | Cc1cc(CSCCNc2nsnc2N)sc1CN(C)C [Example 3, 3-Amino-4-{2-[(5-dimethylaminomethyl-4-methyl-2-thienyl)methylthio]ethylamino}-1,2,5-thiadiazole] | ~ 7 |  | 
4 | Nc1nsnc1NCCCOc1cccc(CN2CCCC2)c1 [Example 4, 3-Amino-4-[3-(3-pyrrolidinomethylphenoxy)propylamino]-1,2,5-thiadiazole] | 20 |  | 
5 | CN/C(=N/CCSCc1nc[nH]c1C)NC#N [cimetidine, reference compound] |  | 3.48 | effective therapeutic agent in the treatment of peptic ulcer disease

From patent US4528375A, “Substituted 3,4-diamino-1,2,5-thiadiazoles having histamine H2 -receptor antagonist activity” (Bristol-Myers Company, priority 1984, dated 1985)
